# Results: PubChem BioAssay AID588645 (Sanford-Burnham Center for Chemical Genomics, 2011)
# The source made the active and inactive calls. No rule for the calls is given here.
# Molecular target: Intestinal-type alkaline phosphatase (Homo sapiens) (UniProt P09923)
# Experiment: inhibition of human intestinal alkaline phosphatase – biochemical, set 2, mouse IAP inhibitor project, SAR follow-up (AID 588645)
# Details: human intestinal alkaline phosphatase enzymatic inhibition assay
# Sequence of Intestinal-type alkaline phosphatase (Homo sapiens) (P09923 whole entry, looked up): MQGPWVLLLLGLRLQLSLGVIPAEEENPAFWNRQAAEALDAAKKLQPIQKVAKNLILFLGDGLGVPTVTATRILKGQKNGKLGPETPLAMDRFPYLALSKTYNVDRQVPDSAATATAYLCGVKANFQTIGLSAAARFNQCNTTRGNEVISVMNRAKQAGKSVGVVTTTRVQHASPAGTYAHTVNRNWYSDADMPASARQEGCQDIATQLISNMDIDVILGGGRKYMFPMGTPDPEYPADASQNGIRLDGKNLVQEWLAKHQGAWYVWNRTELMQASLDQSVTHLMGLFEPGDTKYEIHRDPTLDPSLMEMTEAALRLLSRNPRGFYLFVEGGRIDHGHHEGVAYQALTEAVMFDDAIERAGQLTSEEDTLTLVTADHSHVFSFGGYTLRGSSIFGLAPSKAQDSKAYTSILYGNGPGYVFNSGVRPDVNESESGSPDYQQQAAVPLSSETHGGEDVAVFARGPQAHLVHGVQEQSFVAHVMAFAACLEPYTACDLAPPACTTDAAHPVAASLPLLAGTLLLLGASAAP
row,IC50,SMILES
1,> 100 µM (inactive),O=C(CCCNS(=O)(=O)c1ccc2[nH]c(=O)oc2c1)NCc1cccc(F)c1
2,> 100 µM (inactive),COc1ccc(/C=N/NC(=O)c2cc(O)c(O)c(O)c2)cc1OC
3,> 100 µM (inactive),COc1cc(C(=O)N/N=C/c2c(F)cccc2Cl)cc(OC)c1OC
4,> 100 µM (inactive),COc1ccc(NC(=O)CCNS(=O)(=O)c2ccc3c(c2)CCC3)cc1OC
5,> 100 µM (inactive),COc1ccc(CCNC(=O)CCCNS(=O)(=O)c2ccc3[nH]c(=O)oc3c2)cc1OC
6,> 100 µM (inactive),CCc1ccc(NC(=O)CCNS(=O)(=O)c2ccc3c(c2)oc(=O)n3C)cc1
7,> 100 µM (inactive),COc1cccc(C(=O)N/N=C/c2ccccc2F)c1
8,> 100 µM (inactive),COc1ccc(CNC(=O)C2CCCN(S(=O)(=O)c3ccc4[nH]c(=O)oc4c3)C2)cc1 (stereo unspecified)
9,> 100 µM (inactive),COc1ccc(OC)c(NC(=O)CCNS(=O)(=O)c2ccc3c(c2)oc(=O)n3C)c1
10,> 100 µM (inactive),O=C(N/N=C/c1ccccc1C(F)(F)F)c1cc(O)c(O)c(O)c1
11,> 100 µM (inactive),Cc1ccccc1CNC(=O)CCCNS(=O)(=O)c1ccc2[nH]c(=O)oc2c1
12,> 100 µM (inactive),COc1ccc(CNS(=O)(=O)c2ccc3[nH]c(=O)oc3c2)c(OC)c1
13,> 100 µM (inactive),CC(C)Oc1ccc(CNC(=O)C2CCCN(S(=O)(=O)c3ccc4[nH]c(=O)oc4c3)C2)cc1 (stereo unspecified)
14,> 100 µM (inactive),O=C(CCNS(=O)(=O)c1ccc2[nH]c(=O)oc2c1)NCc1ccc(F)cc1
15,> 100 µM (inactive),O=C(N/N=C/c1c(F)cccc1Cl)c1cc(O)c(O)c(O)c1
16,> 100 µM (inactive),N#Cc1ccc(NS(=O)(=O)c2ccc3[nH]c(=O)oc3c2)cc1
17,> 100 µM (inactive),O=C(NCc1ccccc1)C1CCCN(S(=O)(=O)c2ccc3[nH]c(=O)oc3c2)C1 (stereo unspecified)
18,> 100 µM (inactive),O=C(CCNS(=O)(=O)c1ccc2[nH]c(=O)oc2c1)NCc1cccc(Cl)c1
19,> 100 µM (inactive),COc1ccc(OC)c(NC(=O)C2CCCN(S(=O)(=O)c3ccc4c(c3)oc(=O)n4C)C2)c1 (stereo unspecified)
20,> 100 µM (inactive),COc1cccc(NC(=O)CCNS(=O)(=O)c2ccc3c(c2)oc(=O)n3C)c1
21,> 100 µM (inactive),Cc1ccc(C)c(CNC(=O)C2CCCN(S(=O)(=O)c3ccc4[nH]c(=O)oc4c3)C2)c1 (stereo unspecified)
22,> 100 µM (inactive),COc1ccc(/C=N\NC(=O)c2cc(O)c(O)c(O)c2)cc1CN1CCN(c2ccc(F)cc2)CC1
23,> 100 µM (inactive),O=C(CCS(=O)(=O)Nc1ccc2[nH]c(=O)oc2c1)NCc1cccc(Cl)c1
24,> 100 µM (inactive),COc1ccc(NC(=O)CCNS(=O)(=O)c2ccc3ccccc3c2)cc1OC
25,> 100 µM (inactive),Cc1ccc(NC(=O)CCNS(=O)(=O)c2ccc3c(c2)oc(=O)n3C)c(C)c1
26,> 100 µM (inactive),Cc1ccc(NC(=O)CCNS(=O)(=O)c2ccc3c(c2)oc(=O)n3C)cc1C
